Among the data in patent US6730687B1, “Substituted benzylthiazolidine-2, 4-dione derivatives” (Kyorin Pharmaceutical Co., Ltd., priority 1999, dated 2004) are EC50 and melting point values, retold here.

Data set [1] addresses T1, ligand-binding domain of human type PPARγ (Homo sapiens, UniProt P37231).
T1 sequence (P37231 238-503 limits assumed): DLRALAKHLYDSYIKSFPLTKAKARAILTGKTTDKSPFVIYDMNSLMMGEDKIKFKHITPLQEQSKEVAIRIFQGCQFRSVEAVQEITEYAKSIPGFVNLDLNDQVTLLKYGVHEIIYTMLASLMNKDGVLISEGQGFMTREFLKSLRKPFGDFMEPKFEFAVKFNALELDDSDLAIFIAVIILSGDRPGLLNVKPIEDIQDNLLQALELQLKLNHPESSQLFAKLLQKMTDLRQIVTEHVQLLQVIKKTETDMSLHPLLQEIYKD
The experiment in a line: Test of transactivation on peroxisome proliferator-activated receptor (CHO cells, reporter plasmid), PPARγ.
Protocol: (§1) After 24 hours, CAT activity and β-galactosidase activity were measured.

The target of data set [2] is T2, ligand-binding domain of human type PPARα (Homo sapiens, UniProt Q07869).
T2 sequence (Q07869 239-466 limits assumed): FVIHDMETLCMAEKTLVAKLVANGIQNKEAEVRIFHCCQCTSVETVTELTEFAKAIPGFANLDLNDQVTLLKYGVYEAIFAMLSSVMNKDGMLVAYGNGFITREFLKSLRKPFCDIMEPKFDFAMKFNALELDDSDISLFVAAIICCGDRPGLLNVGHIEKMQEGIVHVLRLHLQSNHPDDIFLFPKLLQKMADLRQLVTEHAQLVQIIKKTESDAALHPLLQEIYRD
The experiment in a line: Test of transactivation on peroxisome proliferator-activated receptor (CHO cells, reporter plasmid), PPARα.
Protocol: as §1

[3] abbreviates: read-out: Transactivation action PPARα EC50, CHO cells cotransfected with receptor and reporter plasmids, 24 hours, CAT activity, β-galactosidase internal standard.

Structures are written as SMILES. Where two headings read alike, the source gives them in different places.

The compound `COc1ccc(CC2SC(=O)NC2=O)cc1C(=O)CCc1ccc(C(F)(F)F)cc1` (stereo not shown) [Example 22, 5-[[3-[3-[4-(Trifluoromethyl)phenyl]propanoyl]-4-methoxynhenyl]methyl]thiazolidine-2,4-dione] registered a melting point of 103 to 104.5 °C. Moreover, the EC50 in data set [1] was found to be 400 nM. For the same compound, the EC50 in data set [2] was 800 nM.

`COc1ccc(CC2SC(=O)NC2=O)cc1NC(=O)Cc1ccc(C(F)(F)F)cc1` (stereo not shown) [Example 15, N-[2-Methoxy-5-[(2,4-dioxothiazolidin-5-yl)methyl]phenyl]-2-[4-(trifluoromethyl)phenyl]acetamide] registered a melting point of 147 to 149 °C. The same compound had an EC50 in data set [1] of 1100 nM. The same compound showed an EC50 in data set [2] of 860 nM.

On to `CCCCC/C=C\C/C=C\C=C\[C@@H](O)C/C=C\CCCC(=O)O` [(8S)-HETE, reference compound], for which the concentration giving a half-maximal response (EC50) in data set [2] (setting [3]) was 1300 nM.

As to `COc1ccc(CC2SC(=O)NC2=O)cc1CC(=O)Nc1ccc(C(F)(F)F)cc1` (stereo not shown) [Example 6, N-[4-(Trifloromethyl)phenyl]-2-[5-[(2,4-dioxothiazolidin-5-yl)methyl]2-methoxyphenyl]acetamide], the EC50 in data set [1] (read-out: Transactivation action PPARγ EC50, CHO cells cotransfected with receptor and reporter plasmids, 24 hours, CAT activity, β-galactosidase internal standard) amounted to 3300 nM; in data set [2] (setting [3]), 600 nM.

In turn, `COc1ccc(CC2SC(=O)NC2=O)cc1CC(=O)Nc1ccc(Oc2ccccc2)cc1` (stereo not shown) [Example 23, N-[4-(Phenoxy)phenyl]-2-[5-[(2,4-dioxothiazolidin-5-yl)methyl]-2-methoxyphenyl]acetamide] had a melting point of 82 to 84 °C.

In the case of `COc1ccc(CC2SC(=O)NC2=O)cc1NC(=O)Nc1ccc(C(F)(F)F)cc1` (stereo not shown) [Example 11, 5-[[4-Methoxy-3-[3-[4-(trifluoromethyl)phenyl]ureido]phenyl]methyl]thiazolidinex-2,4-dione], the melting point fell in the range of 202 to 204 °C. The compound further displayed an EC50 in data set [1] of 430 nM. Moreover, the midpoint of the response in data set [2], the EC50, lay at 550 nM.
